Columns and labels:
[1] = Plasma clearance following IV dosing, CD1 mice (Example 3 of WO 2010/086646 protocol); assay type: in vivo; settings: mouse, male CD1 mice, 5 mg/kg intravenously, 10% NMP/90% water
Experimental: Compound was administered both intravenously and orally to mice. Blood samples were collected at up to 7 time points over 8 hours and plasma was analysed by LC-MS/MS to determine the concentration of compound at each time point. The plasma time concentration profile was delivered along with the main calculated PK parameters (Co, Cmax, AUC-last, t1/2, tmax, Vd, and CL).
Three male CD1 mice, 25-30 g, were dosed per administration route per timepoint. Compound was administered both orally (10 mg compound per kg of body weight) and intravenously (5 mg compound per kg body weight). The excipient used was 10% NMP/90% water. Animals were given free access to food throughout the study.
At the following time points, the animals were anaesthetized, blood collected in heparinized tubes and animals were sacrificed:
Blood samples were centrifuged to obtain the plasma, which was transferred to a separate, labelled container. Aliquots from the individual time points for the three animals were analyzed singly. Protein was precipitated by adding three volumes of methanol and centrifuging for 30 min at 4° C. […] The plasma samples were quantified by LC-MS/MS and the concentration of compound in plasma was reported in μg/mL. Pharmacokinetic parameters were calculated employing non-compartmental model analysis.

[2] = Plasma clearance following IV dosing, CD1 mouse (Example A of WO 2014/072714 protocol); assay type: in vivo; settings: male CD1 mouse, 5 mg/kg I.V., 10% DMSO, 15% Cremophor, 75% Saline
Experimental: Formulation: Solutions in 10% DMSO, 15% Cremophor, 75% Saline
Dosing: 10 mg/kg P.O. and 5 mg/kg I.V.
Protocol: • n=3 male mice per time point per route; • Terminal blood sampling at 8 time points (5 min, 10 min, 0.5 hr, 1 hr, 3 hr, 6 hr, 8 hr and, 24 hr); • Collection of plasma, bio-analysis and report of AUC, AUMC, Vss, CL, half life, MRT and bioavailability.

[3] = biological target: HDAC1 (Homo sapiens, UniProt Q13547); assay: Biochemical Selectivity: HDAC1 inhibition
Text: (§1) Compounds of the invention may be tested for HDAC inhibitory activity by any suitable assay, e.g. the assay described in WO2008/062201.

[4] = biological target: T1, HDAC6 (Homo sapiens, UniProt Q9UBN7); assay: Biochemical Selectivity: HDAC6 inhibition
T1 sequence (Q9UBN7 1-1215): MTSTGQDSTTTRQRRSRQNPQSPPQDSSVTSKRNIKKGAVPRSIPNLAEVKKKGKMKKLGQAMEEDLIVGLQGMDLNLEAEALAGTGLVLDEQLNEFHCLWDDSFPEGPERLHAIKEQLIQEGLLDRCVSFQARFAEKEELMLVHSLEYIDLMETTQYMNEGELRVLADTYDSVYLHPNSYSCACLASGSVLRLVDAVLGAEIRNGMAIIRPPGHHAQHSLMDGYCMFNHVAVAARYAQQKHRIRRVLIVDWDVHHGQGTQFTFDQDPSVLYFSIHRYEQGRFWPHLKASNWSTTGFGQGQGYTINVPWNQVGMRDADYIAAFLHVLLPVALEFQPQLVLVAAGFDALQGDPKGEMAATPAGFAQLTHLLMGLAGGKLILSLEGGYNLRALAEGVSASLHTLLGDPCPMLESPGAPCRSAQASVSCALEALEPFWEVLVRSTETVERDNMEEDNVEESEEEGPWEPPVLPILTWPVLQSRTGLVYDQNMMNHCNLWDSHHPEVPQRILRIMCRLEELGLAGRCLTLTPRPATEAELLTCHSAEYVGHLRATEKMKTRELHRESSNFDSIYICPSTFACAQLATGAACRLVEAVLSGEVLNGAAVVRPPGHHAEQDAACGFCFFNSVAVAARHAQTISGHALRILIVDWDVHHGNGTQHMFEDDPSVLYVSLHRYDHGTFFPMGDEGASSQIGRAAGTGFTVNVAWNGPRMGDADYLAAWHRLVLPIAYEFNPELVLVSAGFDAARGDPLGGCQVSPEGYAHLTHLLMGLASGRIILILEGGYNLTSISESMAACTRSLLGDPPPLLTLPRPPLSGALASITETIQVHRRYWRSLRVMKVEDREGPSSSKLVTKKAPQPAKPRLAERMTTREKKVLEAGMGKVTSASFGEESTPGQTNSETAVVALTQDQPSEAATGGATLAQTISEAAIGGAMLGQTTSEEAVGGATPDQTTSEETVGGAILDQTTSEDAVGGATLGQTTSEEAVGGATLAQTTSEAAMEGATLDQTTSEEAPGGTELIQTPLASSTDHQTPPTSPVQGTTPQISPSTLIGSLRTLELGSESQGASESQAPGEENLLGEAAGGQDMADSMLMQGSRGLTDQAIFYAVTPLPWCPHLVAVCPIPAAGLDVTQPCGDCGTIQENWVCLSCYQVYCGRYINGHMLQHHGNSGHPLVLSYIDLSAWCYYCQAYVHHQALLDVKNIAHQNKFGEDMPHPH
Text: as §1

[5] = Plasma clearance following IV dosing, Balb/c mice (Example D protocol); assay type: in vivo; settings: mouse, male Balb/c mice, 3 mg/kg i.v., 5% NMP, 5% solutol HS-15 in 90% HPβCD solution
Experimental: A group of eighteen male Balb/c mice were divided into two groups Group 1 (3 mg/kg; i.v.), Group 2 (10 mg/kg; p.o.) with each group comprising of nine mice. Animals in Group 1 were administered intravenously with Example D solution formulation in 5% NMP, 5% solutol HS-15 in 90% HPβCD solution (20% HPβCD in RO water) at 3 mg/kg dose while animals in Group 2 were administered orally with 10 mg/kg solution formulation of Example D in 5% NMP, 5% solutol HS-15 in 90% HPβCD solution (20% HPβCD in RO water). Blood samples (approximately 60 μL) were collected from retro orbital plexus under light isoflurane anesthesia such that the samples were obtained at pre-dose, 0.08, 0.25, 0.5, 1, 2, 4, 8 and 24 hr (i.v.) and pre-dose, 0.25, 0.5, 1, 2, 4, 6, 8 and 24 hr (p.o.). The blood samples were collected from set of three mice at each time point in labeled micro centrifuge tube containing K2EDTA as anticoagulant. Plasma samples were separated by centrifugation of whole blood and stored below −70° C. until bioanalysis. All samples were processed for analysis by protein precipitation using acetonitrile (ACN) and analyzed with fit for purpose LC/MS/MS method (LLOQ: 1.27 ng/mL). Pharmacokinetic parameters were calculated using the non-compartmental analysis tool of Phoenix WinNonlin (Version 6.3).

Chain of HDAC1 (Q13547 whole entry, species assumed): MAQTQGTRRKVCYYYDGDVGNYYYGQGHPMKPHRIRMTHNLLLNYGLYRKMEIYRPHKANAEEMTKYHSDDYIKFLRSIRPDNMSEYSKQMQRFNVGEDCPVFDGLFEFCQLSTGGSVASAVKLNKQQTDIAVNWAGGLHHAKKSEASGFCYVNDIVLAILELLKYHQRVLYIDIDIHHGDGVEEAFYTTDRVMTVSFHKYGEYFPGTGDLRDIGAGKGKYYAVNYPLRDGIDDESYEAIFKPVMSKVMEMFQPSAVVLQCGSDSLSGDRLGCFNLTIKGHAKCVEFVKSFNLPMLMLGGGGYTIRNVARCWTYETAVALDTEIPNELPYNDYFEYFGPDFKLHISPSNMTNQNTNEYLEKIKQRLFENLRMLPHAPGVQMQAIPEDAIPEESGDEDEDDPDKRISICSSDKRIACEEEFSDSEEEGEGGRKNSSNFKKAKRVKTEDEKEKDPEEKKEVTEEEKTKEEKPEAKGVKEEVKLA

SMILES | clearance [1] [mL/min/kg] | clearance [2] [mL/min/kg] | IC50 [3] [nM] | IC50 [4] [nM] | clearance [5] [mL/min/kg]
O=C(CCCCCCN(c1ccccn1)c1ccccn1)NO [Example 3 of WO 2010/086646] | 374 |  |  |  | 
Cc1nsc(N(CCCCCCC(=O)NO)c2ccccn2)n1 [Example A of WO 2014/072714] |  | 253 |  |  | 
CN(C)c1cc(N(CCCCCCC(=O)NO)c2cnccn2)ncn1 [Example I, 7-{[6-(Dimethylamino)pyrimidin-4-yl](pyrazin-2-yl)amino}-N-hydroxyheptanamide] |  |  | > 1000 | ≤ 100 | 
O=C(CCCCCCN(c1cnccn1)c1ncnc2occc12)NO [Example J, 7-({Furo[2,3-d]pyrimidin-4-yl}(pyrazin-2-yl)amino)-N-hydroxyheptanamide] |  |  | > 1000 | ≤ 100 | 
COCc1cc(N(CCCCCCC(=O)NO)c2nc(C)ns2)ncn1 [Example M, N-hydroxy-7-{[6-(methoxymethyl)pyrimidin-4-yl](3-methyl-1,2,4-thiadiazol-5-yl)amino}heptanamide] |  |  | > 1000 | ≤ 100 | 
Cn1ccc2ncnc(N(CCCCCCC(=O)NO)c3cnccn3)c21 [Example N, N-hydroxy-7-({5-methyl-5H-pyrrolo[3,2-d]pyrimidin-4-yl}(pyrazin-2-yl)amino) heptanamide] |  |  | > 1000 | ≤ 100 | 
Cn1ncc2ncnc(N(CCCCCCC(=O)NO)c3cnccn3)c21 [Example P, N-hydroxy-7-({1-methyl-1H-pyrazolo[4,3-d]pyrimidin-7-yl}(pyrazin-2-yl)amino)heptanamide] |  |  | > 1000 | ≤ 100 | 
O=C(CCCCCCN(c1cncnc1)c1cnccn1)NO [Example R, N-hydroxy-7-[(pyrazin-2-yl)(pyrimidin-5-yl)amino]heptanamide] |  |  | > 1000 | ≤ 100 | 
Cc1noc(N(CCCCCCC(=O)NO)c2cncc(N3CCOCC3)n2)n1 [Example S, N-hydroxy-7-[(3-methyl-1,2,4-oxadiazol-5-yl)[6-(morpholin-4-yl)pyrazin-2-yl]amino]heptanamide] |  |  | > 1000 | ≤ 100 | 

Next, values leading:

clearance [1] [mL/min/kg] | clearance [2] [mL/min/kg] | IC50 [3] [nM] | IC50 [4] [nM] | clearance [5] [mL/min/kg] | SMILES
 |  | > 1000 | ≤ 100 |  | O=C(CCCCCCN(c1cnccn1)c1cnccn1)NO [Example A, 7-[Bis(pyrazin-2-yl)amino]-N-hydroxyheptanamide]
 |  | > 1000 | ≤ 100 |  | O=C(CCCCCCN(c1cnccn1)c1nccn2ncnc12)NO [Example B]
 |  | 100 to 1000 | ≤ 100 |  | O=C(CCCCCCN(c1cnccn1)c1ccn2nccc2n1)NO [Example C, N-Hydroxy-7-[(pyrazin-2-yl)({pyrazolo[1,5-a]pyrimidin-5-yl})amino]heptanamide]
 |  | 100 to 1000 | ≤ 100 | 48.6 | O=C(CCCCCCN(c1cnccn1)c1ccc(C(F)(F)F)nn1)NO [Example D, N-Hydroxy-7-[(pyrazin-2-yl)[6-(trifluoromethyl)pyridazin-3-yl]amino]heptanamide]
 |  | 100 to 1000 | ≤ 100 |  | COc1ccc(N(CCCCCCC(=O)NO)c2cnccn2)nn1 [Example E, N-Hydroxy-7-[(6-methoxypyridazin-3-yl)(pyrazin-2-yl)amino]heptanamide]
 |  | 100 to 1000 | ≤ 100 |  | O=C(CCCCCCN(c1cnccn1)c1ccc2nccn2n1)NO [Example F, N-Hydroxy-7-({imidazo[1,2-b]pyridazin-6-yl}(pyrazin-2-yl)amino) heptanamide]
 |  | 100 to 1000 | ≤ 100 |  | Cc1nsc(N(CCCCCCC(=O)NO)c2ccnc(N3CCOCC3)n2)n1 [Example G, N-Hydroxy-7-[(3-methyl-1,2,4-thiadiazol-5-yl)[2-(morpholin-4-yl)pyrimidin-4-yl]amino]heptanamide]
 |  | > 1000 | ≤ 100 |  | O=C(CCCCCCN(c1cnccn1)c1ncncc1F)NO [Example H, 7-[(5-Fluoropyrimidin-4-yl)(pyrazin-2-yl)amino]-N-hydroxyheptanamide]
 |  | 100 to 1000 | 100 to 1000 |  | O=C(CCCCCCN(c1ccncn1)c1cnccn1)NO [Example K, N-Hydroxy-7-[(pyrazin-2-yl)(pyrimidin-4-yl)amino]heptanamide]
 |  | 100 to 1000 | ≤ 100 |  | Cc1cc(C(=O)N(C)C)nc(N(CCCCCCC(=O)NO)c2nc(C)ns2)n1 [Example L, 2-{[6-(hydroxycarbamoyl)hexyl](3-methyl-1,2,4-thiadiazol-5-yl)amino}-N,N,6-trimethylpyrimidine-4-carboxamide]
 |  | 100 to 1000 | ≤ 100 |  | CN(C)c1ccc(N(CCCCCCC(=O)NO)c2cnccn2)nn1 [Example O, 7-{[6-(dimethylamino)pyridazin-3-yl](pyrazin-2-yl)amino}-N-hydroxyheptanamide]
 |  | 100 to 1000 | ≤ 100 |  | CN(C)c1cnc(N(CCCCCCC(=O)NO)c2cnccn2)cn1 [Example Q, 7-{[5-(dimethylamino)pyrazin-2-yl](pyrazin-2-yl)amino}-N-hydroxyheptanamide]
